From patent US7816535B2, “Vinyl-phenyl derivatives for inflammation and immune-related uses” (Synta Pharmaceuticals Corp., priority 2006, dated 2010) come the findings set out here.

The structures appear in SMILES notation. Structures can show the parent of a compound that is named as a salt.

This assay concerns IL-2 production. Kind of assay: Inhibition of IL-2 production in PHA-activated Jurkat cells (ELISA). Type of assay: cell-based. Conditions: PHA 2.5 μg/mL, IL-2 ELISA. As for the experimental part: Jurkat cells were placed in a 96 well plate (0.5 million cells per well in 1% FBS medium) then a test compound of this invention was added at different concentrations. After 10 minutes, the cells were activated with PHA (final concentration 2.5 μg/mL) and incubated for 20 hours at 37° C. under CO2. The final volume was 200 μL. Following incubation, the cells were centrifuged and the supernatants collected and stored at −70° C. prior to assaying for IL-2 production. A commercial ELISA kit (IL-2 Eli-pair, Diaclone Research, Besancon, France) was used to detect production of IL-2, from which dose response curves were obtained. The IC50 value was calculated as the concentration at which 50% of maximum IL-2 production after stimulation was inhibited versus a non-stimulation control.
(In general: ELISA stands for enzyme-linked immunosorbent assay.)

`COC(=O)N1CCC(c2nccs2)=C(c2ccc(NC(=O)c3c(F)cccc3F)cc2)C1` [Compound 41, 2,6-Difluoro-N-[4-(1-methoxycarbonyl-4-thiazol-2-yl-1,2,5,6-tetrahydro-pyridin-3-yl)-phenyl]-benzamide]: inhibition (Homo sapiens, Jurkat, 20 h) was half-maximal at 308 nM (IC50). This lies in the sub-micromolar range. Still for that read-out and setting: the same measure for `C=C(C)[C@H]1CCC(C)=C(c2ccc(NC(=O)c3ccncc3C)cc2)C1` [Compound 3, 3-Methyl-N-[4-(2-methyl-5(S)-isopropenyl-cyclohex-1-enyl)-phenyl]-isonicotinamide]: 9 nM.

Regarding `C=CC1=C(c2ccc(NC(=O)c3c(F)cccc3F)cc2)CCC1` [Compound 33, 2,6-Difluoro-N-[4-(2-vinyl-cyclopent-1-enyl)-phenyl]-benzamide], the IC50 (as a rule, the point on the concentration scale where inhibition reaches its midpoint) (Homo sapiens, Jurkat, 20 h) was 97.1 nM. Compared with the last molecule, the IC50 is about 11-fold higher. In turn, `CCOC(=O)N1CCC(C)=C(c2ccc(NC(=O)c3c(F)cccc3F)cc2)C1` [Compound 12, Ethyl 3-(4-(2,6-difluorobenzamido)phenyl)-4-methyl-5,6-dihydropyridine-1(2H)-carboxylate] displayed an IC50 (Homo sapiens, Jurkat, 20 h) of 23 nM. Compared with the last molecule, the IC50 is about 4.2-fold lower. On the same count and under the same terms, the same measure for `CC(C)=C(c1ccccc1)c1ccc(NC(=O)c2c(F)cccc2F)cc1` [Compound 92, 2,6-Difluoro-N-[4-(2-methyl-1-phenyl-propenyl)-phenyl]-benzamide]: 43.8 nM. Still for that read-out and setting: for `CC1=C(c2ccc(NC(=O)c3c(F)cccc3F)cc2)CN(c2ncco2)CC1` [Compound 70, 2,6-Difluoro-N-[4-(1-oxazol-2-yl-4-methyl-1,2,5,6-tetrahydro-pyridin-3-yl)-phenyl]-benzamide] the value was 12.4 nM; for `CC1=C(c2ccc(NC(=O)c3c(F)cccc3F)cc2)CCN(c2nccs2)C1` [Compound 91, 2,6-Difluoro-N-[4-(1-thiazol-2-yl-3-methyl-1,2,5,6-tetrahydro-pyridin-4-yl)-phenyl]-benzamide], 226 nM; for `COc1ccc(C(=C(C)C)c2ccc(NC(=O)c3c(F)cccc3F)cc2)cc1` [Compound 93, 2,6-Difluoro-N-{4-[2-methyl-1-(4-methoxy-phenyl)-propenyl]-phenyl}-benzamide], 54.6 nM. `CC1=C(c2ccc(NC(=O)c3ccncc3F)cc2)CN(c2nnnn2C)CC1` [Compound 85, N-{4-[1-(1-methyl-1H-tetrazol-5-yl)-4-methyl-1,2,5,6-tetrahydro-pyridin-3-yl]-phenyl}-3-fluoro-isonicotinamide] came in with an IC50 (Homo sapiens, Jurkat, 20 h) of 44.1 nM. The molecule `CC1=C(c2ccc(NC(=O)c3c(F)cccc3F)cc2)CN(c2nc(C)co2)CC1` [Compound 80, 2,6-Difluoro-N-{4-[1-(4-methyl-oxazol-2-yl)-4-methyl-1,2,5,6-tetrahydro-pyridin-3-yl]-phenyl}-benzamide] returned an IC50 (Homo sapiens, Jurkat, 20 h) of 98.5 nM. The same measure, in the same setting: the same measure for `CC1=C(c2ccc(NC(=O)c3c(F)cccc3F)cc2)CN(C(N)=S)CC1` [Compound 73, 2,6-Difluoro-N-[4-(1-thiocarbamoyl-4-methyl-1,2,5,6-tetrahydro-pyridin-3-yl)-phenyl]-benzamide]: 456 nM; for `CC1=C(c2ccc(NC(=O)c3ncncc3C)cc2)CN(c2nc(C)c(C)o2)CC1` [Compound 81, 5-Methyl-pyrimidine-4-carboxylic acid {4-[1-(4,5-dimethyl-oxazol-2-yl)-4-methyl-1,2,5,6-tetrahydro-pyridin-3-yl]-phenyl}-amide]: > 1000 nM; for `CCOC(=O)C1=C(c2ccc(NC(=O)c3c(F)cccc3F)cc2)CCN(C#N)C1` [Compound 56, 2,6-Difluoro-N-[4-(1-cyano-3-ethoxycarbonyl-1,2,5,6-tetrahydro-pyridin-4-yl)-phenyl]-benzamide]: > 1000 nM. Same read-out and setting: for `C=C(C)[C@H]1CCC(C)=C(c2ccc(NC(=O)c3ccncc3F)nc2)C1` [Compound 5] the value was 13.9 nM; for `CC1=C(c2ccc(NC(=O)c3c(F)cccc3F)nc2)CN(c2nccs2)CC1` [Compound 72, 2,6-Difluoro-N-[5-(1-thiazol-2-yl-4-methyl-1,2,5,6-tetrahydro-pyridin-3-yl)-pyridin-2-yl]-benzamide, hydrochloride], 35 nM; for `CC1=C(c2ccc(NC(=O)c3ccncc3F)cc2)CN(C(=O)Oc2ccc([N+](=O)[O-])cc2)CC1` [Compound 52, N-{4-[1-(4-nitro-phenyloxycarbonyl)-4-methyl-1,2,5,6-tetrahydro-pyridin-3-yl]-phenyl}-3-fluoro-isonicotinamide], 651 nM. In the case of `CCOC(=O)N1CCC(C)=C(c2ccc(NC(=O)c3ccncc3C)cc2)C1` [Compound 50, N-[4-(1-ethoxycarbonyl-4-methyl-1,2,5,6-tetrahydro-pyridin-3-yl)-phenyl]-3-methyl-isonicotinamide, hydrochloride], inhibition (20 hours, hydrochloride) was half-maximal at 177 nM (IC50). Take `C=C(C)[C@@H]1CCC(C)=C(c2ccc(NC(=O)c3ccncc3F)cc2)C1` [Compound 4, 3-Fluoro-N-[4-(2-methyl-5(R)-isopropenyl-cyclohex-1-enyl)-phenyl]-isonicotinamide]: under “Homo sapiens, Jurkat, 20 h”, half-maximal inhibition (IC50) required 7 nM.

In turn, `C=CCOC(=O)N1CCC(c2ccc(NC(=O)c3c(F)cccc3F)cc2)=C(C)C1` [Compound 54, 2,6-Difluoro-N-[4-(1-allyloxycarbonyl-3-methyl-1,2,5,6-tetrahydro-pyridin-4-yl)-phenyl]-benzamide] showed an IC50 (Homo sapiens, Jurkat, 20 h) of 235 nM. The same measure, in the same setting: the same measure for `CC1=C(c2ccc(NC(=O)c3ccncc3F)cc2)CN(c2cncnc2)CC1` [Compound 90, N-[4-(1-pyrimidin-5-yl-4-methyl-1,2,5,6-tetrahydro-pyridin-3-yl)-phenyl]-3-fluoro-isonicotinamide]: 126 nM. In the case of `CC1=C(c2ccc(NC(=O)c3c(F)cccc3F)cc2)CN(c2nc3ccccc3o2)CC1` [Compound 68, 2,6-Difluoro-N-[4-(1-benzooxazol-2-yl-4-methyl-1,2,5,6-tetrahydro-pyridin-3-yl)-phenyl]-benzamide], the midpoint of inhibition (Homo sapiens, Jurkat, 20 h), the IC50, lay at 95.3 nM. For `CCS(=O)(=O)N1CCC(C)=C(c2ccc(NC(=O)c3ccncc3C)cc2)C1` [Compound 60, N-[4-(1-ethanesulfonyl-4-methyl-1,2,5,6-tetrahydro-pyridin-3-yl)-phenyl]-3-methyl-isonicotinamide], the midpoint of inhibition (Homo sapiens, Jurkat, 20 h), the IC50, lay at 229 nM. This IC50 lies about 2.4-fold higher than the previous one. Same read-out and setting: for `O=C(Nc1ccc(C2=C(CO)CCCC2)cc1)c1c(F)cccc1F` [Compound 22, N-[4-(2-hydroxymethyl-cyclohex-1-enyl)-phenyl]-2,6-difluoro-benzamide] the value was 721 nM; for `CC(C)=C(c1ccccc1)c1ccc(NC(=O)c2ccncc2C)cc1` [Compound 14, 3-Methyl-N-(4-(2-methyl-1-phenylprop-1-enyl)phenyl)-isonicotinamide], 159 nM. On the same count and under the same terms, for `CC1=C(c2ccc(NC(=O)c3ccncc3F)cc2)CN(c2ccccn2)CC1` [Compound 66, N-[4-(1-pyridin-2-yl-4-methyl-1,2,5,6-tetrahydro-pyridin-3-yl)-phenyl]-3-fluoro-isonicotinamide] the value was 42.1 nM; for `CCOC(=O)N1CCC(c2ccc(NC(=O)c3c(F)cccc3F)cc2)=C(C)C1` [Compound 16, Ethyl 4-(4-(2,6-difluorobenzamido)phenyl)-3-methyl-5,6-dihydropyridine-1(2H)-carboxylate], 24.6 nM; for `C=CC1=C(c2ccc(NC(=O)c3c(F)cccc3F)cc2)CCCC1` [Compound 101, N-[4-(2-vinyl-cyclohex-1-enyl)-phenyl]-2,6-difluoro-benzamide], 11 nM. Same read-out and setting: for `CCOC(=O)N1C=C(c2ccc(NC(=O)c3c(F)cccc3F)cc2)C(C)CC1` (stereo not drawn) [Compound 8, 5-[4-(2,6-difluoro-benzoylamino)-phenyl]-4-methyl-2,4-dihydro-2H-pyridine-1-carboxylic acid ethyl ester] the value was 95 nM; for `C=CCOC(=O)N1CCC(C)=C(c2ccc(NC(=O)c3ccncc3F)cc2)C1` [Compound 53, N-[4-(1-allyloxycarbonyl-4-methyl-1,2,5,6-tetrahydro-pyridin-3-yl)-phenyl]-3-fluoro-isonicotinamide], 81.3 nM; for `CC(=O)OCC(C)=C(C)c1ccc(NC(=O)c2c(F)cccc2F)cc1` [Compound 96, 2,6-Difluoro-N-[4-(1,2-dimethyl-3-acetoxy-propenyl)-phenyl]-benzamide], 631 nM. Regarding `COC(=O)N1CCC(C)=C(c2ccc(NC(=O)c3ccncc3F)cc2)C1` [Compound 45, N-[4-(1-methoxycarbonyl-4-methyl-1,2,5,6-tetrahydro-pyridin-3-yl)-phenyl]-3-fluoro-isonicotinamide], the IC50 (Homo sapiens, Jurkat, 20 h) is 248 nM. The same measure, in the same setting: for `COC(=O)C1=C(c2ccc(NC(=O)c3c(F)cccc3F)cc2)CCCCC1` [Compound 35, 2,6-Difluoro-N-[4-(2-methoxycarbonyl-cyclohept-1-enyl)-phenyl]-benzamide] the value was 104 nM. In turn, `CC1=C(c2ccc(NC(=O)c3c(F)cccc3F)cc2)CCCC1` [Compound 25, N-[4-(2-methyl-cyclohex-1-enyl)-phenyl]-2,6-difluoro-benzamide] had a 50% inhibitory concentration (IC50) (Homo sapiens, Jurkat, 20 h) of 7.2 nM. Still for that read-out and setting: the same measure for `COc1ccccc1C(=C(C)C)c1ccc(NC(=O)c2c(F)cccc2F)cc1` [Compound 95, 2,6-Difluoro-N-{4-[2-methyl-1-(2-methoxy-phenyl)-propenyl]-phenyl}-benzamide]: 156 nM. Under “Homo sapiens, 20 hours”, `CC1=C(c2ccc(NC(=O)c3c(F)cccc3F)cc2)CCN(Cc2ccccc2)C1` [Compound 19, N-(4-(1-benzyl-5-methyl-1,2,3,6-tetrahydropyridin-4-yl)phenyl)-2,6-difluorobenzamide] registered an IC50 of 513 nM. That is a sub-micromolar value.

As for `O=C(Nc1ccc(C2=CCCCC2)cc1)c1ccncc1F` [Compound 18, N-(4-Cyclohexenylphenyl)-3-fluoroisonicotinamide], the IC50 (Homo sapiens, Jurkat, 20 h) is > 1000 nM.
